# Assay results from patent US5985273A, “Biological control of insects” (priority 1994, dated 1999).
# Starred links: 1 amine or outer side, 2 acyl side, 3 side chain; linkers in the order of their positions; H or OH if unused. Non-standard residues stand in square brackets, D forms with d. Residues, ends and D or L forms follow the SMILES beside them. *: point of attachment. Sta = CC(C)C[C@H](N)[C@@H](O)CC(=O)O; Isovaleryl = CC(C)CC(=O)*; Nle = CCCC[C@H](N)C(=O)O; CO = O=C([*:1])[*:2]
# What was measured:
# Lucilia cuprina larvae = assay: Growth and survival of first instar sheep blowfly larvae on culture medium with inhibitor; assay type: in vivo; conditions: for Effect on larval growth, summary in words: Example 1, Table 1.2
# [1] = test system: Colorado potato beetle larvae; conditions: cited from earlier work
# O. surinamensis larvae = assay: Weight reduction of Oryzaephylus surinamensis larvae in treated flour; assay type: in vivo
# Procedure: Insects were cultured in cleaned, ground and sieved wholemeal flour made from organic wheat. Inhibitors from bottles of pre-weighed material were dry-mixed with the flour and residual inhibitor rinsed from bottles with a small volume of water. Rinse water was added to the flour and the mixture re-ground. The impregnated flour was transferred to a 20 mL vial and mixed thoroughly by shaking and inverting.
# Adults of T. castaneum were allowed to oviposit on flour, eggs were sifted from the flour and transferred one by one with a single hair to microwell tubes containing a small amount of flour. Each level of treatment was performed in triplicated using 32 wells/replicate. Assays were performed in triplicated. Cultures were incubated at 30° C. and 55% R H.
# The bioassay for this insect was outlined for T. castaneum, except incubations were conducted at 32.5° C. and 70% R H. After 8 days the insects were sieved from the flour and weighed.
# Teleogryllus commodus = assay: Mortality of black field cricket nymphs on treated cabbage leaf disks; assay type: in vivo; conditions: after 7 days
# Procedure: (i) Stock solutions of inhibitors and control solutions were prepared as aqueous solutions or suspensions as outlined in Table 6.1.
# (ii) Mortality was assessed by commencing the study with 1st instar nymphs.
# (iii) Cabbage leaf disks (5×8 mm diameter disks/treatment) were smeared with 100 μl of inhibitor or control stock solutions and allowed to dry. Disks were placed singly in 40 mm petri dishes, together with a moist cotton wool pas as water supply and a piece of fluted plastic for shelter.
# (iv) Ten nymphs were placed on each disc and the dishes incubated at 25° C.
# (v) Mortality was assessed daily and any dead individuals removed.
# [2] = test system: Bovicola ovis (Hartley strain); conditions: cited from earlier work
# [3] = test system: Heliothis punctigens larvae; assay: Growth and survival of cotton budworm larvae fed an artificial diet; assay type: in vivo; conditions: for % Alive / Average Laval Weight: 10 days; for % Alive: control 70.0; for Average Laval Weight: control 165.4
# Procedure: 1. The Haricot beans were cooked in a microwave for 40 minutes. 2. Agar was added to the hot water and stirred on a hot plate until almost boiling. 3. The haricot beans, agar mix, yeast and wheat germ was blended in an electric mixer for 3 minutes. 4. When the temperature has dropped to 60°C., the acids were added and mixed with the media. […] Inhibitor solutions or an equal volume of water were placed into sterilized glass tubes at designated concentrations. The artificial media was added to each tube (1.5 ml) using a sterile 10 ml syringe. First instar Heliothis punctigens larvae (1 larvae per tube) were added to the glass tubes and the tubes were capped. The tubes were incubated for 10 days at 25° C. The larvae were killed by placing the glass tubes at -70° C. for 24 hours, and then individually weighed. Percentage inhibition was calculated by comparison to control larvae.
# Ctenocephalides felis = assay: Development of cat flea eggs in dried blood diets; assay type: in vivo; conditions: Day 16
# Procedure: Blood was collected from the jugular vein of a five year old merino sheep that had not been treated with an ectoparasitic agent for 18 months. The blood was collected into a 100 ml plastic bottle containing 0.8 ml of heparin and was maintained at 4° C. Inhibitors were pre-weighed into sterile 5 ml plastic vials and 4.5 ml of blood added. The samples were mixed, placed at -70° C. for 24 hours, then freeze-dried. The freeze-dried samples were sieved through a stainless steel 63 micron sieve, and placed into sterile 5 ml plastic vials (0.15 g/per tube). Four flea eggs were placed into each vial, and a sheet of tissue paper fastened by an elastic band was fitted to the top of each vial. The vials were incubated at 25° C. and 70-80% R H for 6 days. Vermiculite was then added to each vial to provide a supporting medium for the fleas to pupate and the tubes incubated at 25° C. and 70-80% R H, for a further 10 days. Ten control vials and three vials of each treatment were tested.
# At the conclusion of the incubation period the vials were placed at -20° C. for 24 hours to kill the fleas. The number of eggs hatched and the life-cycle state was recorded.
# [4] = Lucilia cuprina, first instar larvae, 2 mM
# [5] = 192 h, 2.5 mM, 8 days, relative to untreated larvae, read-out: Percentage Growth Inhibition
# [6] = 192 h, 5 mM, 8 days, relative to untreated larvae, read-out: Percentage Growth Inhibition
# [7] = 192 h, 10 mM, 8 days, relative to untreated larvae, read-out: Percentage Growth Inhibition
# [8] = first instar larvae, tested at 1, 2, 5, 10 mM
# [9] = Heliothis, 240 h, read-out: % Growth Inhibition
compound,measurement,setting,value
"CC(C)C[C@H](NC(=O)[C@H]1O[C@@H]1C(=O)O)C(=O)NCCCCN=C(N)N (relative stereo) [E64, L-trans-epoxy-succinyl-leucylamido-(4-guanidino-butane)]","Effect on larval growth, summary in words",Lucilia cuprina larvae,ineffective
same,Growth Inhibition,"Lucilia cuprina larvae; first instar larvae, tested at 1, 2, 5 mM",No inhibition detected
same,Plateau in mortality,[1]; 1000 μg/ml application level,74-85%
same,Threshold level for larval growth reduction,[1]; fed on potato leaves,50 µg/mL
"CC(C)C[C@@H](N)[C@H](O)C(=O)N[C@H](C(=O)N[C@H](C(=O)N[C@@H](CC(=O)O)C(=O)O)C(C)C)C(C)C [Amastatin, ((2S,3R)-3-amino-2-hydroxy-5-methyl-hexanoyl)-Val-Val-Asp-OH]","Effect on larval growth, summary in words",Lucilia cuprina larvae,effective growth inhibitors
same,inhibition at 2000 µM,Lucilia cuprina larvae; [4],60%
CC(C)[C@H](NC(=O)[C@H](CCCNC(=N)N)NC(=O)N[C@@H](Cc1ccccc1)C(=O)O)C(=O)N[C@H](C=O)CCCNC(=N)N [Antipain] ({Phe-CO}-Arg-Val-Arg-aldehyde),inhibition at 2500 µM,"Lucilia cuprina larvae; Lucilia cuprina, first instar larvae, 2.5 mM, unit inferred",45.5%
same,inhibition at 5000 µM,"Lucilia cuprina larvae; Lucilia cuprina, first instar larvae, 5 mM, unit inferred",63.2%
same,inhibition at 2500 µM,O. surinamensis larvae; [5],-10%
same,inhibition at 5000 µM,O. surinamensis larvae; [6],-2%
same,inhibition at 10000 µM,O. surinamensis larvae; [7],-2%
same,Mortality (class),Teleogryllus commodus; 2.5-10 mM,"None (none/low, 10-20% mortality)"
CC(C)C[C@H](NC(=O)[C@@H](O)[C@H](N)Cc1ccccc1)C(=O)O [Bestatin],"Effect on larval growth, summary in words",Lucilia cuprina larvae,effective growth inhibitors
same,inhibition at 5000 µM,"Lucilia cuprina larvae; Lucilia cuprina, first instar larvae, 5 mM",63%
same,inhibition at 1250 µM,"O. surinamensis larvae; 192 h, 1.25 mM, 8 days, relative to untreated larvae, read-out: Percentage Growth Inhibition",-5%
same,inhibition at 2500 µM,O. surinamensis larvae; [5],2%
same,inhibition at 5000 µM,O. surinamensis larvae; [6],-4%
same,"Growth inhibition, summary in words",O. surinamensis larvae; text summary of Table 9.1,ineffective
O=BOB(O)OB(O)OB=O [Borax],inhibition at 5000 µM,O. surinamensis larvae; [6],-5%
same,inhibition at 10000 µM,O. surinamensis larvae; [7],39%
same,inhibition at 20000 µM,"O. surinamensis larvae; 192 h, 20 mM, 8 days, relative to untreated larvae, read-out: Percentage Growth Inhibition",68%
same,Mortality,Teleogryllus commodus; 5-20 mM,93%
same,Mortality (class),Teleogryllus commodus; 5-20 mM,High (high 41-100%)
"CCCC[C@@H](C=O)NC(=O)[C@H](CC(C)C)NC(=O)[C@H](CC(C)C)NC(C)=O [Calpain inhibitor I, N-Acetyl-Leu-Ley-norleucinal] (Ac-Leu-Leu-[Nle]-aldehyde)",Growth Inhibition,"Lucilia cuprina larvae; first instar larvae, 2 mM",71%
CC1(C)C(C=C(Cl)Cl)C1C(=O)OC(C#N)c1cccc(Oc2ccccc2)c1 (stereo not drawn) [Cypermethrin],LC95,[2]; Hartley strain lice,475 µg/mL
CCOP(=S)(OCC)Oc1cc(C)nc(C(C)C)n1 [Diatinon],LC50,[2]; Hartley strain lice,5.31 µg/mL
same,LC95,[2]; Hartley strain lice,19.7 µg/mL
same,Resistance Factor,"[2]; Hartley strain, (Singapore)",1.4
"CC[C@H](C)[C@H](N)C(=O)N1CCC[C@H]1C(=O)N[C@H](C(=O)O)[C@@H](C)CC [Diprotin, H-Ile-Pro-Ile-OH]","Effect on larval growth, summary in words",Lucilia cuprina larvae,ineffective
same,Growth Inhibition,Lucilia cuprina larvae; [8],No inhibition detected
"CC(C)CC(N)CS [L-leucinethiol, 2-amino-4-methyl-1-pentanethiol]","Effect on larval growth, summary in words",Lucilia cuprina larvae,effective growth inhibitors
same,inhibition at 1000 µM,"Lucilia cuprina larvae; Lucilia cuprina, Table 2.2, 1.00 mM",21.4%
same,inhibition at 2000 µM,"Lucilia cuprina larvae; Lucilia cuprina, Table 2.2, 2.00 mM",73.1%
same,inhibition at 2000 µM,Lucilia cuprina larvae; [4],47%
same,Average Larval Weight,"Lucilia cuprina larvae; Table 2.2, 1.00 mM, control 10.26",8.06 10^-4 g
same,Average Larval Weight,"Lucilia cuprina larvae; Table 2.2, 2.00 mM, control 10.26",2.76 10^-4 g
same,% Growth Incubation,"Lucilia cuprina larvae; Table 2.3, 1.0 mM",67.2%
same,Average Larval Weight,"Lucilia cuprina larvae; Table 2.3, 1.0 mM, control 9.08",2.98 10^-4 g
same,% Growth Incubation,"Lucilia cuprina larvae; Table 2.3, 2.0 mM",86.6%
same,Average Larval Weight,"Lucilia cuprina larvae; Table 2.3, 2.0 mM, control 9.08",1.22 10^-4 g
same,Larval survival,"Lucilia cuprina larvae; first instar larvae, 5 mM",All killed
"CC(C)C[C@H](N)[C@](O)(Cc1c[nH]cn1)C(=O)O [Leuhistin, (2R,3S)-3-amino-2-hydroxy-2-(lII-imidazole-4-methyl)-5-methylhexanoic acid]","Effect on larval growth, summary in words",Lucilia cuprina larvae,effective growth inhibitors
same,Growth Inhibition,"Lucilia cuprina larvae; first instar larvae, 5 mM",65%
"CC(=O)N[C@@H](CC(C)C)C(=O)N[C@@H](CC(C)C)C(=O)N[C@H](C=O)CCCNC(=N)N [Leupeptin, Ac-Leu-Leu-Arginyl.1/2H2 SO4 H2 O]","Effect on larval growth, summary in words",Lucilia cuprina larvae,intermediate inhibition
same,inhibition at 2000 µM,Lucilia cuprina larvae; [4],71%
same,inhibition at 10000 µM,"Lucilia cuprina larvae; Lucilia cuprina, first instar larvae, 10 mM",80%
same,% Alive,[3]; 2.5 mM,16.6%
same,Average Laval Weight,[3]; 2.5 mM,16.6 mg
same,% Alive,[3]; 5.0 mM,33.3%
same,Average Laval Weight,[3]; 5.0 mM,17.0 mg
same,inhibition at 2500 µM,[3]; [9],90%
same,inhibition at 5000 µM,[3]; [9],89.7%
same,Percentage of Fleas Progressing Through to Pupation,Ctenocephalides felis; 1.70 mg in 4.5 ml of blood,0%
same,Percentage of Fleas Progressing Through to Pupation,Ctenocephalides felis; 3.40 mg in 4.5 ml of blood,0%
"Cl.NCCc1ccc(S(=O)(=O)F)cc1 [PEFABLOC, 4-(2-aminoethyl)-benzenesulfonylfluoride hydrochloride]",Growth Inhibition,"Lucilia cuprina larvae; first instar larvae, 10 mM",72%
same,Growth Inhibition,"Lucilia cuprina larvae; first instar larvae, 50 mM",92%
same,Percentage Growth Inhibition,"O. surinamensis larvae; 2.5 mM, 8 days, relative to untreated larvae",49%
same,Percentage Growth Inhibition,"O. surinamensis larvae; 5 mM, 8 days, relative to untreated larvae",61%
same,Percentage Growth Inhibition,"O. surinamensis larvae; 10 mM, 8 days, relative to untreated larvae",79%
same,Mortality (class),Teleogryllus commodus; 2.5-10 mM,Medium (medium 21-40%)
same,Percentage of Fleas Progressing Through to Pupation,Ctenocephalides felis; 1.10 mg in 4.5 ml of blood,0%
same,Percentage of Fleas Progressing Through to Pupation,Ctenocephalides felis; 2.20 mg in 4.5 ml of blood,0%
CC(C)CC(=O)N[C@H](C(=O)N[C@H](C(=O)N[C@@H](CC(C)C)[C@@H](O)CC(=O)N[C@@H](C)C(=O)N[C@@H](CC(C)C)[C@@H](O)CC(=O)O)C(C)C)C(C)C [Pepstatin] (Isovaleryl-VV[Sta]A[Sta]-OH),"Effect on larval growth, summary in words",Lucilia cuprina larvae,ineffectiveness
same,Growth Inhibition,"Lucilia cuprina larvae; first instar larvae, tested at 1, 2, 10 mM",No inhibition detected
same,Growth retardation,[1]; fed on potato leaves,only a small response
Casein,Percentage Growth Inhibition,"O. surinamensis larvae; 10 mg/ml, 8 days",-5%
same,Percentage Growth Inhibition,"O. surinamensis larvae; 20 mg/ml, 8 days",10%
same,Percentage Growth Inhibition,"O. surinamensis larvae; 40 mg/ml, 8 days",-2%
tosyl-L-lysine chloromethyl ketone [TLCK],"Effect on larval growth, summary in words",Lucilia cuprina larvae,killing the larvae
same,Larval survival,"Lucilia cuprina larvae; first instar larvae, 5 mM",All killed
same,Larval survival,"Lucilia cuprina larvae; first instar larvae, 10 mM",All killed
tosyl-L-phenylalanine chloromethyl ketone [TPCK],Growth Inhibition,Lucilia cuprina larvae; [8],No inhibition detected
